Measured values reported in publication PMC9072872, “Structure-based design of nucleoside-derived analogues as sulfotransferase inhibitors” (RSC Advances, 2019).

Legend:
[1] = molecular target: T1, TPST1 (Homo sapiens, UniProt O60507); assay: Immunoblot of GST-CC4tide tyrosine sulfation by TPST1 (anti-sulfotyrosine antibody); assay type: biochemical; details: compound 400 μM, GST-CC4-tide 1 μg, TPST1 0.2 μg, PAPS 5 μM, 15 min
T1 construct: Human TPST1 (residues Lys43-Leu360) enzyme was purified as a recombinant protein; made in house
T1 sequence (O60507 43-360): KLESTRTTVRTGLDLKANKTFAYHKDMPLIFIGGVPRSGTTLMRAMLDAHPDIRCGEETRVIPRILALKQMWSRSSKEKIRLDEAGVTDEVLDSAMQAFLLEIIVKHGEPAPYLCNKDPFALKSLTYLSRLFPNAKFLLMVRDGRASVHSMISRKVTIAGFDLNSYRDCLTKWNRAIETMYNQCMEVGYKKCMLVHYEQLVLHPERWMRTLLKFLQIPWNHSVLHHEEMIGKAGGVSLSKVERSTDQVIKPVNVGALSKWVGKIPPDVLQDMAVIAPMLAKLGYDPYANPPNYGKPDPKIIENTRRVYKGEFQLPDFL
Experimental: In order to further assess TPST1 inhibition by 2′-deoxy-PAP and compounds 1–14 using a complementary assay, immunoblotting of a TPST1 protein substrate (GST-CC4tide) was implemented with a monoclonal antibody that specifically recognises sulfotyrosine, using PAP as positive control (Fig. 5A). Compounds were screened at 400 μM in the assay. In common with the […] enzyme assay using a synthetic peptide, a broad range of inhibitory activities was observed.
Fig. 5 Immunological evaluation of TPST1 inhibition towards substrate and a Ser/Thr protein kinase counter-screen. (A) Immunoblots evaluating TPST1 sulfotransferase activity in the presence of a panel of PAP- and PAPS-mimetic compounds. […] After termination of the reaction using SDS-PAGE sample buffer, tyrosine sulfation was visualised by immunoblotting using a monoclonal sulfotyrosine antibody (top panel), with equal GST-CC4-tide and TPST1 loading confirmed using an antibody to detect 6xHis tagged proteins (bottom panel). (B) Enzymatic inhibition of PKA catalytic activity by a panel of PAP- and PAPS-mimetic compounds. PKA kinase (1 nM) was incubated with ATP (5 μM) in the presence of the appropriate nucleoside analogue (400 μM) for 30 min at 20 °C. PKA activity was calculated in real-time using fluorescently-labelled substrate peptide (2 μM) and normalised to DMSO (4% v/v) or buffer control.[77] Data in B is mean and SD of 3 individual experiments. Staurosporine is included at 40 μM as a generic inhibitor of kinase activity. […]
All standard laboratory biochemicals, were purchased from Sigma, and were of the highest analytical quality.
5'-phosphosulfate, lithium salt hydrate, PAP (adenosine 3',5'-diphosphate, disodium salt), CoA (coenzymeA, sodium salt), ATP (adenosine 5’-triphosphate, disodium salt hydrate) were all purchased from Sigma and stored at -80 °C to minimise degradation.
Recombinant Protein Production and SDS-PAGE
Human TPST1 (residues Lys43-Leu360) enzyme was purified as a recombinant protein containing an N-terminal 6xHis tag as previously described. […]
pMAL-c2x plasmid encoding an N-terminal Maltose Binding Protein (MBP) affinity tag.6 Glutathione-S-transferase (GST) tagged CC4-tide ([…]) was cloned into pOPINJ (OPPF-UK) and […]
affinity purified from BL21 (DE3) pLysS E. coli using Glutathione-Sepharose 4B (GE Healthcare). 5 For SDS-PAGE, proteins were denatured in Laemmli sample buffer, heated at 95 °C for 5 min and then analysed by SDS-PAGE with 10% (v/v) polyacrylamide gels. Gels were stained and de-stained using a standard Coomassie Brilliant Blue protocol. To evaluate protein sulfation by immunoblotting, standard western blotting procedures were followed using monoclonal anti-sulfotyrosine ant ibody clone o-1C-A2 (Millipore) generated using a phage display procedure and sulfotyrosine selection peptide antigens7 in the presence of appropriate positive and negative controls, and modifications visua lised using ECL […]
Data was normalized […]
with respect to these control assays, with sulfate incorporation into the substr ate limited to ~ 20% to prevent depletion of PAPS and to ensure assay linearity. K m and IC50 values were determined by non-linear regression analysis with GraphPad Prism software. […]

[2] = molecular target: PKA (Homo sapiens, UniProt P17612); assay: PKA kinase counter-screen; assay type: biochemical; details: compound 400 μM, PKA 1 nM, ATP 5 μM, 30 min, 20 °C
Description: Fig. 5 Immunological evaluation of TPST1 inhibition towards substrate and a Ser/Thr protein kinase counter-screen. (A) Immunoblots evaluating TPST1 sulfotransferase activity in the presence of a panel of PAP- and PAPS-mimetic compounds. […] After termination of the reaction using SDS-PAGE sample buffer, tyrosine sulfation was visualised by immunoblotting using a monoclonal sulfotyrosine antibody (top panel), with equal GST-CC4-tide and TPST1 loading confirmed using an antibody to detect 6xHis tagged proteins (bottom panel). (B) Enzymatic inhibition of PKA catalytic activity by a panel of PAP- and PAPS-mimetic compounds. PKA kinase (1 nM) was incubated with ATP (5 μM) in the presence of the appropriate nucleoside analogue (400 μM) for 30 min at 20 °C. PKA activity was calculated in real-time using fluorescently-labelled substrate peptide (2 μM) and normalised to DMSO (4% v/v) or buffer control.[77] Data in B is mean and SD of 3 individual experiments. Staurosporine is included at 40 μM as a generic inhibitor of kinase activity.
Finally, a simple counter-screen was set up employing PKA. This was carried out in order to assess relative specificity for ST inhibition, and using the generic kinase inhibitor staurosporine A as a positive control and PAP and CoA as negative controls, neither of which bind nor inhibit PKA. Compounds were screened at 400 μM in the presence 1 nM PKA.

| suppression of tyrosine sulfation (immunoblot) [1] | inhibitory activity towards PKA [2] | SMILES |
| --- | --- | --- |
| complete suppression | no activity | Nc1ncnc2c1ncn2[C@H]1C[C@H](OP(=O)(O)O)[C@@H](COP(=O)(O)O)O1 [2′-deoxy-PAP] |
| inactive | – | Nc1ncnc2c1ncn2[C@H]1C[C@H](O)[C@@H](Cn2cc(P(=O)(O)O)nn2)O1 [Compound 11] |
| partial suppression | – | Nc1ncnc2c1ncn2[C@H]1C[C@H](OP(=O)(O)O)[C@@H](Cn2cc(P(=O)(O)O)nn2)O1 [Compound 12] |
| partial suppression | – | Nc1ncnc2c1ncn2[C@H]1C[C@H](O)[C@@H](Cn2cc(P(=O)(O)OCc3ccccc3)nn2)O1 [Compound 13] |
